Residue numbers refer to the chain shown, from its start.
Experiments:
COMPcc [1] = system: COMPcc; design: method as in PMID 9736606; conditions: ligand bound in the channel; ref [9]; cited from earlier work
COMPcc [2] = molecular target: T1, COMPcc (Rattus norvegicus, UniProt P35444); test: Displacement of CPA from the CPA-COMPcc complex by fatty acids (fluorescence); type: binding; conditions: for Kd: calculated from [FA]1/2 of CPA displacement; for Kd / IC50: 1× PBS pH 7.4, 25°C, triplicate; for Interaction Free Energy: from Kd of CPA displacement; for IC50: read-out: [FA]1/2, fatty acid concentration that halves the CPA fluorescence, COMPcc ~0.1 µM, CPA 0.4 µM
T1 sequence (P35444 27-72): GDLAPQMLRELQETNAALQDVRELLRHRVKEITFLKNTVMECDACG
Protocol: Steady-state fluorescence spectra were measured on a Fluorolog-3 Horiba Jobin Yvon spectrofluorometer (Edison, NJ). The sample was held in a 10×10 mm quartz cuvette equipped with a continuous stirrer. The data were analyzed with Sigmaplot (Point Richmond, CA) software. The reaction was thermostatically controlled at 25°C by a Jeio-Tech refrigerating bath circulator (Des Plaines, IL). All fluorescence data were collected in 1× PBS buffer, pH 7.4. From the fluorescence enhancement profile of CPA, the fraction of ligand bound protein (f) can be calculated using: [drawing 1] (1) where F0 is the fluorescence of protein sample when no CPA has been added, F is the protein fluorescence at any given CPA concentration and F420 is the protein fluorescence in the presence of 3 µM of CPA. In the case of one ligand binding site, f follows a hyperbolic dependence upon ligand concentration given by: [drawing 2] (2) where B is a constant, Kd is the dissociation constant and [L]free is the concentration of free ligand (in this case CPA).
The probe CPA can also be used to characterize the binding of other fatty acids to COMPcc. The addition of fatty acids (FA) to the CPA-COMPcc complex will displace CPA leading to a decrease in fluorescence. […] In the case where there is no FA added the concentrations are [COMPcc] = [COMPcc]0 and [CPA]≈[CPA]0 = 0.4 µM. In this case the concentration of the CPA-COMPcc complex will be equal to: [drawing 5] (5) At [drawing 6] ,the concentration of the COMPcc-CPA complex is equal to one half the initial: [drawing 7] (6) Writing a mass balance for COMPcc we obtain: [drawing 8] (7) When [drawing 9] : [drawing 10] (8) The dissociation constant [drawing 11] can be calculated using the value of [FA]1/2 (the amount of fatty acid that reduces the CPA fluorescence to half its original value.

COMPcc [3] = molecular target: T2, COMPcc (Rattus norvegicus, UniProt P35444, G27M/H53Q/R54Q); test: Fluorescence enhancement of cis-parinaric acid (CPA) on binding to COMPcc
T2 construct: The coiled-coil domain of rat COMPcc comprising residues 27–72 was prepared as described previously; made in house; host or cells: E. coli
T2 sequence (P35444 27-72 G27M/H53Q/R54Q): T1 sequence (P35444 27-72) with G1M, H27Q, R28Q
Protocol: The coiled-coil domain of rat COMPcc comprising residues 27–72 was prepared as described previously. Purified COMPcc was dialyzed against PBS pH 7.4 and concentrated to 10 mg/mL using an 10 kDa Amicon membrane (Millipore).
Steady-state fluorescence spectra were measured on a Fluorolog-3 Horiba Jobin Yvon spectrofluorometer (Edison, NJ). The sample was held in a 10×10 mm quartz cuvette equipped with a continuous stirrer. The data were analyzed with Sigmaplot (Point Richmond, CA) software. The reaction was thermostatically controlled at 25°C by a Jeio-Tech refrigerating bath circulator (Des Plaines, IL). All fluorescence data were collected in 1× PBS buffer, pH 7.4. From the fluorescence enhancement profile of CPA, the fraction of ligand bound protein (f) can be calculated using: [drawing 1] (1) where F0 is the fluorescence of protein sample when no CPA has been added, F is the protein fluorescence at any given CPA concentration and F420 is the protein fluorescence in the presence of 3 µM of CPA. In the case of one ligand binding site, f follows a hyperbolic dependence upon ligand concentration given by: [drawing 2] […] Therefore, the binding of CPA to COMPcc is consistent with hyperbolic one site binding and the experimentally determined binding constant was 0.7±0.1 µM.

Q54I = Q54I mutant; ref [9], [27]; cited from earlier work
COMPcc [4] = conditions: wild type COMPcc; ref [9], [27]; cited from earlier work

Row | SMILES | increase of midpoint transition temperature (Tm) of unfolding (COMPcc [1]) | Kd (COMPcc [2]) | Interaction Free Energy (COMPcc [2]) | IC50 (COMPcc [2]) | also measured
1 | CCCCCCCC/C=C/CCCCCCCC(=O)O [18:1 trans-9 elaidic acid] | 10 °C | – | – | – | –
2 | CCCCCCCCCCCCCC(=O)O [C14:0 [Myristic acid], Myristic acid] | – | 800 ± 100 nM | -8.31 ± 0.07 kcal/mol | 320 ± 50 nM | –
3 | CCCCCCCC/C=C\CCCCCCCC(=O)O [C18:1 [Oleic acid], Oleic acid] | – | 900 ± 100 nM | -8.24 ± 0.06 kcal/mol | 390 ± 50 nM | –
4 | CCCCCCCCCCCCCCCCCCCC(=O)O [C20:0 [Arachidic acid], Arachidic acid] | – | 700 ± 100 nM | -8.42 ± 0.08 kcal/mol | 280 ± 40 nM | –
5 | c1ccccc1 [benzene] | 2 °C | – | – | – | –
6 | CC\C=C/C=C/C=C/C=C\CCCCCCCC(=O)O [cis-Parinaric acid] | – | – | – | – | Interaction Free Energy (COMPcc [3]; from Kd of direct CPA binding): -8.42 ± 0.08 kcal/mol; Kd (COMPcc [3]; hyperbolic one-site binding, excitation 320 nm, emission 420 nm, 1× PBS pH 7.4, 25°C): 700 ± 100 nM
7 | C1CCCCC1 [cyclohexane] | 2 °C | – | – | – | –
8 | CC1=C(/C=C/C(C)=C/C=C/C(C)=C/CO)C(C)(C)CCC1 [vitamin A] | – | – | – | – | Interaction Free Energy (Q54I): -8.3 kcal/mol; Kd (Q54I): 800 nM; Interaction Free Energy (COMPcc [4]): -8.4 kcal/mol; Kd (COMPcc [4]): 600 nM
9 | C=C1CC[C@H](O)C/C1=C/C=C1\CCC[C@]2(C)[C@@H]([C@H](C)CCCC(C)C)CC[C@@H]12 [vitamin D3] | 8 °C | – | – | – | –

Reference: paper PMC3487892, “The Pentameric Channel of COMPcc in Complex with Different Fatty Acids” (PLoS ONE, 2012)
